According to ChEMBL document CHEMBL1201862, “PubChem BioAssay data set” (2004):
Active and inactive are the calls of the source.

Columns and labels:
Bcl-2-like protein 10 = Bcl-2-like protein 10 (Homo sapiens, UniProt Q9HD36); assay: Bcl-B/TR3 peptide binding disruption – biochemical, fluorescence polarization, FITC-TR3 peptide, selectivity assay for Bfl-1 inhibitor project, primary screen (AID 748);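 also: fluorescence polarization from a fluorescein-labelled TR3 peptide binding purified Bcl-B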
[1] = target: Induced myeloid leukemia cell differentiation protein Mcl-1 (Homo sapiens, UniProt Q07820); format: functional
[2] = target: T1, Hepatocyte nuclear factor 4-alpha (Homo sapiens, UniProt P41235); format: functional, cell-based;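 also: biochemical luminescence-based dose-response counterscreen measuring inhibition of HNF4 dimerization, run alongside a screen for blockers of ABHD5–perilipin-5 interaction; split luciferase complementation of HNF4 fusion proteins in cell lysate measuring dimerization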
T1 sequence (P41235 whole entry): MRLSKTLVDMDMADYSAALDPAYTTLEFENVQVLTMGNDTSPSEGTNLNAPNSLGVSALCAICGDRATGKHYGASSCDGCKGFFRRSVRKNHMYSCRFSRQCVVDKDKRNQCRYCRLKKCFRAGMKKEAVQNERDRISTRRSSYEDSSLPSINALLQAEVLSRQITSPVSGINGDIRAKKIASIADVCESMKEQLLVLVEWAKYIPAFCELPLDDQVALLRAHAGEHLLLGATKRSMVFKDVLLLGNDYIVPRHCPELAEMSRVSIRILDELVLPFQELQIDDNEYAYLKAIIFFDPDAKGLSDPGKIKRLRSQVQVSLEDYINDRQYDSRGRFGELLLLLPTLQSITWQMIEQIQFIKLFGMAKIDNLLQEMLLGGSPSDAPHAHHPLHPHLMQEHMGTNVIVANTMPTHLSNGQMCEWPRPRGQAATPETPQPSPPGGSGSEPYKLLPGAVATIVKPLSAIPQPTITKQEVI

[3] = target: T2, Tyrosine-protein phosphatase non-receptor type 7 (Homo sapiens, UniProt P35236); format: functional
T2 sequence (P35236 whole entry): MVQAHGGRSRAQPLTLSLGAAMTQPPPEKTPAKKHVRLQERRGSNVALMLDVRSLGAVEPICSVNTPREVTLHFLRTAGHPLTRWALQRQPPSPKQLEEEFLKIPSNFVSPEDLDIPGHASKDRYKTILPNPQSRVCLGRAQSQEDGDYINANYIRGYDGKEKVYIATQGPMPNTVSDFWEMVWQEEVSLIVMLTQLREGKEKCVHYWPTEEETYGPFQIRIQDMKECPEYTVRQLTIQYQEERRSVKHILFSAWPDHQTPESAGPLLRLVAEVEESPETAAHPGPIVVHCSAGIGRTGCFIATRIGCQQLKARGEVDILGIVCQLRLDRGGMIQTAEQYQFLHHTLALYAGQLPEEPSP

[4] = target: Glyceraldehyde-3-phosphate dehydrogenase (Homo sapiens, UniProt P04406)
[5] = target: Heat shock cognate 71 kDa protein (Homo sapiens, UniProt P11142); assay: In Vitro Hsc70 Dose Response Fluorescence Polarization Assay. [Related pubchem assays: 1072 ]
[6] = target: Heat shock 70 kDa protein 1A (Homo sapiens, UniProt P0DMV8); assay: inhibition of Hsp70 binding activity – biochemical, fluorescence polarization, SAR follow-up (AID 1072)
[7] = target: T3, Dual specificity protein phosphatase 6 (Rattus norvegicus, UniProt Q64346)
T3 sequence (Q64346 whole entry): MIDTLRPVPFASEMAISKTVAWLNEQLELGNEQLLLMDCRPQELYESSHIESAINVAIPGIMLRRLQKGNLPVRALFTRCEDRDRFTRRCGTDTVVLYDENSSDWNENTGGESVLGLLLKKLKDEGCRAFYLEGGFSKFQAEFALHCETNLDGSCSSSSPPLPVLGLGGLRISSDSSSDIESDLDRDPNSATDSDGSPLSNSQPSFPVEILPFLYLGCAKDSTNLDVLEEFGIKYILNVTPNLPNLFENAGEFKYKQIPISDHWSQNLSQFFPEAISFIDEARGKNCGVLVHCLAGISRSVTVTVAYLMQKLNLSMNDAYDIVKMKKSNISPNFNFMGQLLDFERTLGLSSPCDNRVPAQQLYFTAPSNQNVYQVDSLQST

[8] = target: T3, Dual specificity protein phosphatase 6; format: functional
[9] = target: DNA (cytosine-5)-methyltransferase 1 (Homo sapiens, UniProt P26358); assay: inhibition of DNA methylation by DNMT1 – biochemical, fluorescent molecular beacon, confirmation (AID 602386); format: functional
Caspase-6 = target: T4, Caspase-6 (Homo sapiens, UniProt P55212); assay: inhibition of CASP6 peptide cleavage – biochemical, VEID-R110 fluorescence, cherry-pick, dose response (AID 720632)
T4 sequence (P55212 whole entry): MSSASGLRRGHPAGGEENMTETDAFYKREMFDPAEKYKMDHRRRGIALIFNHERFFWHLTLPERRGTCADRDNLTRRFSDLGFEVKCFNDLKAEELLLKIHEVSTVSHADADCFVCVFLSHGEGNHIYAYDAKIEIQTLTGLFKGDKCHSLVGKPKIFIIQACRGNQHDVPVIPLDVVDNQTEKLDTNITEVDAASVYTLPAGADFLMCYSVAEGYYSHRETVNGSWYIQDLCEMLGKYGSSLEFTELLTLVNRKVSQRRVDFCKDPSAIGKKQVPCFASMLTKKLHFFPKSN

Caspase-7 = Caspase-7 (Homo sapiens, UniProt P55210); assay: caspase-7 enzyme inhibition, selectivity check – biochemical, DEVD-R110 fluorescence, cherry-pick, selectivity assay for caspase-6 inhibitor project, dose response (AID 743295); format: functional
Caspase-8 = Caspase-8 (Homo sapiens, UniProt Q14790); assay: inhibitors of purified CASP8 protease – biochemical, Z-IETD-R110 fluorescence, cherry-picked samples, selectivity assay for caspase-6 inhibitor project, dose response (AID 743294)
HEK293 [10] = assay: Fluorescence-based counterscreen for potentiators or agonists of NPY-Y2: cell-based high-throughput dose response assay to identify inhibitors of cyclic nucleotide gated ion channel (CNGC) activity. In this assay, the parental HEK293 cell line transfected with a cyclic-nucleotide gated ion channel (CNGC)-based cAMP sensor is used to measure inhibition of isoproterenol-induced CNGC activity by test compound.; format: functional; conditions: Homo sapiens
[11] = target: T5, Neuropeptide Y receptor type 2 (Homo sapiens, UniProt P49146); assay: Fluorescence-based cell-based high-throughput dose response assay for agonists of NPY-Y2. [Related pubchem assays: 1703 (Screening assay (CNGC inhibitors).), 1359 (Screening assay (NPY-Y2 potentiators or agonists).), 1304 (Screening assay (NPY-Y1 potentiators or agonists).), 1710 (Screening assay (NPY-Y2 agonists).), 1791 (Summary AID.)]; format: functional
T5 sequence (P49146 whole entry): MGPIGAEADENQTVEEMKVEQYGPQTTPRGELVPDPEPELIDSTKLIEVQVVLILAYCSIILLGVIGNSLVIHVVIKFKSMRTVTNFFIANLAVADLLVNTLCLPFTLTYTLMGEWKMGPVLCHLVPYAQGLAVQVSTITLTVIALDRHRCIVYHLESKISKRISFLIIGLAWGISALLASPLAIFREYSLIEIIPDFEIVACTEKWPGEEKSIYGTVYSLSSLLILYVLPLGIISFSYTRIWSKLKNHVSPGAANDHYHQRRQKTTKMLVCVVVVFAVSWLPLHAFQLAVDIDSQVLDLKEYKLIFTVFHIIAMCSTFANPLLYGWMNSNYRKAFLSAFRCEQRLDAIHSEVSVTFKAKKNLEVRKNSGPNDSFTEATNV

[12] = target: T6, Neuropeptide Y receptor type 1 (Homo sapiens, UniProt P25929); assay: Fluorescence-based counterscreen for agonists of NPY-Y2: cell-based high-throughput dose response assay for agonists of NPY-Y1.; format: functional
T6 sequence (P25929 whole entry): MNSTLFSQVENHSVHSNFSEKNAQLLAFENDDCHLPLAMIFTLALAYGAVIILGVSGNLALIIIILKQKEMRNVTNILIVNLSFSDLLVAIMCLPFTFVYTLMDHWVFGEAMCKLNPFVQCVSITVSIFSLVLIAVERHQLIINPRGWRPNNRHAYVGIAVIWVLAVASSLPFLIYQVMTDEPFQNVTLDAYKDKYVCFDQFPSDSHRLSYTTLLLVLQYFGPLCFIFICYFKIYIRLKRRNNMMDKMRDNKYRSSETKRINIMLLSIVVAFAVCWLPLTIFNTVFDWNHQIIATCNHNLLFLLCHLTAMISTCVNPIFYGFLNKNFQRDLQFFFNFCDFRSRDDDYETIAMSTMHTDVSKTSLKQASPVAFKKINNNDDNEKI

Cytochrome P450 2D6 = Cytochrome P450 2D6 (Homo sapiens, UniProt P10635); assay: qHTS Assay for Inhibitors and Substrates of Cytochrome P450 2D6. [Related pubchem assays: 410 ]; format: ADME; conditions: read-out: Potency
Tumor necrosis factor = Tumor necrosis factor (Homo sapiens, UniProt P01375); assay: analog potency on TNFa NF-kB signaling – cell-based, revised, SAR follow-up (AID 2337); format: functional
[13] = target: T7, Nucleotide-binding oligomerization domain-containing protein 1 (Homo sapiens, UniProt Q9Y239); assay: blockers of NOD1 pathway activity – revised, SAR follow-up (AID 2333); format: functional
T7 sequence (Q9Y239 whole entry): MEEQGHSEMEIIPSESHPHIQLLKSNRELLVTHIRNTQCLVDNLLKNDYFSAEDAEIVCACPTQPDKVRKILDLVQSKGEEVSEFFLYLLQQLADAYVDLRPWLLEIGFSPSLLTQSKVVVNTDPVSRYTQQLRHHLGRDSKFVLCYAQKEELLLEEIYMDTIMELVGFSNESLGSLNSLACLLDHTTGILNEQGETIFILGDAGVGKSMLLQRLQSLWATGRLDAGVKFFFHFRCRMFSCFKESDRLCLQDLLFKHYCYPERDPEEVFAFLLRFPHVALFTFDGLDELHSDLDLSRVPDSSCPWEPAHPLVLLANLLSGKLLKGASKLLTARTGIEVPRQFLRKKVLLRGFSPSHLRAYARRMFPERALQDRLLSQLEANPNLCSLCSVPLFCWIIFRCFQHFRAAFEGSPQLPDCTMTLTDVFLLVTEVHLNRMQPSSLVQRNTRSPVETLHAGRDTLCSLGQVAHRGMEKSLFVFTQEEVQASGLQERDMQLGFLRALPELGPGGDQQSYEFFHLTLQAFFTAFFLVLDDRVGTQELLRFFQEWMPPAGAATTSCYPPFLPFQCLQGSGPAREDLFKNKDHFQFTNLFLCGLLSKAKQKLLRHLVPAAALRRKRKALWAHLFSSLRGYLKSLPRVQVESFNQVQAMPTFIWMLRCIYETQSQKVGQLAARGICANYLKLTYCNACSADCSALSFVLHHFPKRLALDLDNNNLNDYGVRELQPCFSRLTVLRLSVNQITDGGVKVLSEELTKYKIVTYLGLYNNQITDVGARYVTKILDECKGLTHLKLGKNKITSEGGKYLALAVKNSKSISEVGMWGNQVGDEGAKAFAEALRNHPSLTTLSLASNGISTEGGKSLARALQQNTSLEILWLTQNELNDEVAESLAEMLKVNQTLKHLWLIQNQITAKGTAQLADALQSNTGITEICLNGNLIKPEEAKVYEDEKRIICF

[14] = target: Nucleotide-binding oligomerization domain-containing protein 2 (Homo sapiens, UniProt Q9HC29); assay: PubChem AID 2334; format: functional
HEK293 [15] = assay: cells; conditions: Homo sapiens
[16] = target: T8, Alkaline phosphatase, tissue-nonspecific isozyme (Homo sapiens, UniProt P05186)
T8 sequence (P05186 whole entry): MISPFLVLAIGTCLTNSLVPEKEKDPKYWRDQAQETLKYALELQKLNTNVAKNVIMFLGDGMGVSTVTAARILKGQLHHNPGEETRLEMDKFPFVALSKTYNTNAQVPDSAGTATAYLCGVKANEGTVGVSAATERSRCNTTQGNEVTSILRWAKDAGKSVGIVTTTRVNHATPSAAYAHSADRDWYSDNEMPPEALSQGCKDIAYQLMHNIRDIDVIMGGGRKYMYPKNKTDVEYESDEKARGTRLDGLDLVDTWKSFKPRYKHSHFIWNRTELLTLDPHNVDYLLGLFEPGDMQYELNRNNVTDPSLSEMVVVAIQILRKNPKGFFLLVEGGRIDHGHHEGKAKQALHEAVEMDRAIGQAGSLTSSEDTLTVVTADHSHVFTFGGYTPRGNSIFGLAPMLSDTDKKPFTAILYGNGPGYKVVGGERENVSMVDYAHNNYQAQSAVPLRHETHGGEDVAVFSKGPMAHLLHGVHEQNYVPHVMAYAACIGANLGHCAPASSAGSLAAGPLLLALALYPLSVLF

[17] = target: Dual specificity protein phosphatase 3 (Homo sapiens, UniProt P51452); assay: inhibition constants for human DUSP3 – biochemical, colorimetric, SAR follow-up (AID 2004)
Chain of Dual specificity protein phosphatase 3 (P51452 whole entry): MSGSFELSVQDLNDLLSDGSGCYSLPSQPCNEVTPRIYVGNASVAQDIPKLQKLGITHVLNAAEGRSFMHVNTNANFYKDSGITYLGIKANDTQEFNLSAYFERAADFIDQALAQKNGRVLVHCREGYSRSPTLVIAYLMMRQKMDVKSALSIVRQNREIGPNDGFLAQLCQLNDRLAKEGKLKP

Chain of Heat shock cognate 71 kDa protein (P11142 whole entry): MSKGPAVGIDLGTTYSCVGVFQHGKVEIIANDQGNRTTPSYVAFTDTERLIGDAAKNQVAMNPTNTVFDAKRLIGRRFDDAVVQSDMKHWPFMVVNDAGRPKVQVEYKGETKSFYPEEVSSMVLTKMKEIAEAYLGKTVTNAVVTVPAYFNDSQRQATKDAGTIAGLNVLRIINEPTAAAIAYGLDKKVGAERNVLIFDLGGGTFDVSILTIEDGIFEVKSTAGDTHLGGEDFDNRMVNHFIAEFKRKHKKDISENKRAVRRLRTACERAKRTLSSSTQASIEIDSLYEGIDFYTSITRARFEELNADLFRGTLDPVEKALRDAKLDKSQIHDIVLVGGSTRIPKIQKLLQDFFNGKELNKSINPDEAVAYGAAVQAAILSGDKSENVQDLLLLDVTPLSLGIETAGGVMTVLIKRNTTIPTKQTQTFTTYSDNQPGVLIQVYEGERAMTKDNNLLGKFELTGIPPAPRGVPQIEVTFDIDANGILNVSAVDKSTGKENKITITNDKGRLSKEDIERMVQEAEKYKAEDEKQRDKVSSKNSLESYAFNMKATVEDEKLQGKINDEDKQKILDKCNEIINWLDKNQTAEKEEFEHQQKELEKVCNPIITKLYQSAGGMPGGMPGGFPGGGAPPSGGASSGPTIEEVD
Chain of Cytochrome P450 2D6 (P10635 whole entry): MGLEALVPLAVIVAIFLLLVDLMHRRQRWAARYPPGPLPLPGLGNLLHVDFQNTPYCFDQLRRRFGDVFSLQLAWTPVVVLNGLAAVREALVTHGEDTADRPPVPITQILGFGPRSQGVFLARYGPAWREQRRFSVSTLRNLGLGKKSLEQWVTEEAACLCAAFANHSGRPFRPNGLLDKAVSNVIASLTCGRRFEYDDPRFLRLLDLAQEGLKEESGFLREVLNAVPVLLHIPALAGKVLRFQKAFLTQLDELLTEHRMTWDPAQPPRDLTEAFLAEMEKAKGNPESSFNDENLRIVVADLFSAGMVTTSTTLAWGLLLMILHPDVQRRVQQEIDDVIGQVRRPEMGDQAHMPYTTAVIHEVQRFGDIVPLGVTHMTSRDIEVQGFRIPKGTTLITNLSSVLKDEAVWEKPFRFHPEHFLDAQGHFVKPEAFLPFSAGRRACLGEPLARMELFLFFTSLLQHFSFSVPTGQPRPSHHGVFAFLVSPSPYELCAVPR
Chain of Caspase-7 (P55210 24-198 limits assumed): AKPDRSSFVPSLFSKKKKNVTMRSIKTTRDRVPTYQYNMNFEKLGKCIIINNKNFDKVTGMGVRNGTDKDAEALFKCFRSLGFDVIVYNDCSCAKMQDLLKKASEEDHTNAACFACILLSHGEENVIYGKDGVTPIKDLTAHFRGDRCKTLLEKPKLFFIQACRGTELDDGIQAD
Chain of Caspase-7 (P55210 207-303 limits assumed): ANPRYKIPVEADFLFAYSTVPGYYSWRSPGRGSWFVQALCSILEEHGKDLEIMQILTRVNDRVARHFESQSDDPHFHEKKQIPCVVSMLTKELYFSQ
Chain of Induced myeloid leukemia cell differentiation protein Mcl-1 (Q07820 whole entry, the tested form may be a part): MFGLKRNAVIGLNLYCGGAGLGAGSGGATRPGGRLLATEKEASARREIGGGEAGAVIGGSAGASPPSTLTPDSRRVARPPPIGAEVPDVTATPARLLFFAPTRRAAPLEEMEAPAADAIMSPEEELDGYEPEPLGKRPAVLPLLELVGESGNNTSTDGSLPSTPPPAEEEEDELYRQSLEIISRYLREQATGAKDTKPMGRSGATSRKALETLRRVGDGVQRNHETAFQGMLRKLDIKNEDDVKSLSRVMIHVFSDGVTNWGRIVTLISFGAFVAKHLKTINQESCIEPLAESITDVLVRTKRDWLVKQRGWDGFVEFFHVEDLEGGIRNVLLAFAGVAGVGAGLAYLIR
Chain of Glyceraldehyde-3-phosphate dehydrogenase (P04406 whole entry): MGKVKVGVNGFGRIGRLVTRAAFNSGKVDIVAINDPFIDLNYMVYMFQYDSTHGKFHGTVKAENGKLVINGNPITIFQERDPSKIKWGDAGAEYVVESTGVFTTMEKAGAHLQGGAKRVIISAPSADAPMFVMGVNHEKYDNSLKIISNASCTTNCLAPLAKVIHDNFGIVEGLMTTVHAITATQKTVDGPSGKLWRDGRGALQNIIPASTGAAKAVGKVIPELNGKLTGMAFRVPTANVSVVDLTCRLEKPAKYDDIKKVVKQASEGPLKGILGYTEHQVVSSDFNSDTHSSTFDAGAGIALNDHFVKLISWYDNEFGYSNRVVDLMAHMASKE
Chain of Tumor necrosis factor (P01375 whole entry, the tested form may be a part): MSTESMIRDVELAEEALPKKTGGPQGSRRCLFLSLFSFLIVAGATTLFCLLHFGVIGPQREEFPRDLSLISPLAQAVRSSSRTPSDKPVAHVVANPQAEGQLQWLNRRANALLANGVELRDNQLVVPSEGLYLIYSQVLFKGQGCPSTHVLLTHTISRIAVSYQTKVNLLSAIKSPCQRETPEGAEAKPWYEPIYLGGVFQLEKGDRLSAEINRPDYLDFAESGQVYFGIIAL
Chain of Caspase-8 (Q14790 217-374 limits assumed): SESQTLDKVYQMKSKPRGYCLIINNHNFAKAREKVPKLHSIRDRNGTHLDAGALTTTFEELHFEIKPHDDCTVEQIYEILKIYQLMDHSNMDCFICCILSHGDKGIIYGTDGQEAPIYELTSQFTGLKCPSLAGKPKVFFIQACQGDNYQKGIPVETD
Chain of Caspase-8 (Q14790 385-479 limits assumed): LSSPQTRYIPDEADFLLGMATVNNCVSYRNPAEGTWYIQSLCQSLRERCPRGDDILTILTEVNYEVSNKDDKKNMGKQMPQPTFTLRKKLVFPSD
Chain of Nucleotide-binding oligomerization domain-containing protein 2 (Q9HC29 whole entry, the tested form may be a part): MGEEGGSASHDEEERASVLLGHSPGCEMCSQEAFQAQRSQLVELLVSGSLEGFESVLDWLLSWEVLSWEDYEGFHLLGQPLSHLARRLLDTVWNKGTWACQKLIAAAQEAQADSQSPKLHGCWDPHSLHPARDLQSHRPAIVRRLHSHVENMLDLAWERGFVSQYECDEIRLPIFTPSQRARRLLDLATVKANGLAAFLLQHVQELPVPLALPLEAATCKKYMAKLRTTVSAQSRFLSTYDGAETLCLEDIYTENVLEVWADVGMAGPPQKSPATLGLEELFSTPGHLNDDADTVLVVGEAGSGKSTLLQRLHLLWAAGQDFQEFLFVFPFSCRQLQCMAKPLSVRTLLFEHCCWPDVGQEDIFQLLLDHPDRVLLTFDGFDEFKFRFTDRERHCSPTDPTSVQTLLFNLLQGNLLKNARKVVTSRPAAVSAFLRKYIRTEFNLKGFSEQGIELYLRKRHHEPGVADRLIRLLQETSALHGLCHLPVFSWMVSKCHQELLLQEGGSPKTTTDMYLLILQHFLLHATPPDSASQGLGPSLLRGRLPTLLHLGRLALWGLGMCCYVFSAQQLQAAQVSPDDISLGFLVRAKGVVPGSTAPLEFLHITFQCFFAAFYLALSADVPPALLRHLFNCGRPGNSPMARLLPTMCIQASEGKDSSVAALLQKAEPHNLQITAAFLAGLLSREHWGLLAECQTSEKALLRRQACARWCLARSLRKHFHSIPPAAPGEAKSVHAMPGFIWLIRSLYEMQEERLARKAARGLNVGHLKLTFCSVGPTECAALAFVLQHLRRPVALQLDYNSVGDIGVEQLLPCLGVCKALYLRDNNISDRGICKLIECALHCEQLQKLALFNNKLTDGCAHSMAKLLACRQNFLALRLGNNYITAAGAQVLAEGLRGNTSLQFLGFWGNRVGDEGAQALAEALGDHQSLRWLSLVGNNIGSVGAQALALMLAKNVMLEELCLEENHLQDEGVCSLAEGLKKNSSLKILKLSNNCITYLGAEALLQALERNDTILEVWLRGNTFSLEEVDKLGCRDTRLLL
Chain of Heat shock 70 kDa protein 1A (P0DMV8 whole entry): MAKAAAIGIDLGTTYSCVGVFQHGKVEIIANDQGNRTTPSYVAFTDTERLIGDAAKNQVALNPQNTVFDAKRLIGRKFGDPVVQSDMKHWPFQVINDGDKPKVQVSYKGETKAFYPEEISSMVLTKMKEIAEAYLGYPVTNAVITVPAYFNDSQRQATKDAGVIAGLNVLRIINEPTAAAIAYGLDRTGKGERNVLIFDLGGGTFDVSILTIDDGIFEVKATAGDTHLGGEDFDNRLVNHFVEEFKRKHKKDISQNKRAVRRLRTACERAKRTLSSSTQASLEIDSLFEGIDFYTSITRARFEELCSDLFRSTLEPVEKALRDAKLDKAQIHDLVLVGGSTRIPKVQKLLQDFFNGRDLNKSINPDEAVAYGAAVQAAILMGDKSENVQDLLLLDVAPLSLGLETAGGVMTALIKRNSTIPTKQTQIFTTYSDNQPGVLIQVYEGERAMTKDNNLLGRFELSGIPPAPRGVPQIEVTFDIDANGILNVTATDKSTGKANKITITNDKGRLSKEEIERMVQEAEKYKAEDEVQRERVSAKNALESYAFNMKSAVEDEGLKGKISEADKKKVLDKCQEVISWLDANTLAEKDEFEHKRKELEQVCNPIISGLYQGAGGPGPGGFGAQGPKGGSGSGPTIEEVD
Chain of Bcl-2-like protein 10 (Q9HD36 whole entry): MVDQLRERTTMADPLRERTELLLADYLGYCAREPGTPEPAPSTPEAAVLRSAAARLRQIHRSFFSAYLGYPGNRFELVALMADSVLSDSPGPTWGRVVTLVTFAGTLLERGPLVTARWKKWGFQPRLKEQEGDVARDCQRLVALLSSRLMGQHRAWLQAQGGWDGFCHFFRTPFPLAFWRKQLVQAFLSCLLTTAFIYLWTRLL

Cc1ccc(NC(=O)CSc2nnc(-c3ccco3)c(-c3ccco3)n2)cc1
IC50 (Bcl-2-like protein 10): 19 µM (active)
IC50 [1]: 3.01 µM (active)
IC50 [2]: 1.6 µM (active)

O=C(O)C1Nc2c(Cl)cc(Cl)c(Cl)c2C2C=CCC12 (stereo not drawn)
IC50 [3]: 9.63 µM (active)
IC50 [4]: > 100 µM (not active)
IC50 [5]: > 100 µM (not active)
IC50 [6]: > 100 µM (not active)
IC50 [7]: 14.2 µM (active)
IC50 [8]: 12 µM (active)
IC50 [9]: 4.36 µM (active)
AC50 (Caspase-6): 2 µM (active)
AC50 (Caspase-7): 34.1 µM (active)
AC50 (Caspase-8): > 70 µM (inactive)

Cc1c([N+](=O)[O-])c(C(=O)Sc2ccc(Br)cc2)nn1C
EC50 (HEK293 [10]): > 11.8 µM (not active)
EC50 [11]: > 35.4 µM (not active)
EC50 [12]: > 35.4 µM (not active)

CCCCc1nc2c(c3c1CC(C)OC3)CN(CCC(C)C)CC2 (stereo not drawn)
AC50 (Cytochrome P450 2D6): 3.98 µM (inconclusive)

CCCCNCC(=O)Nc1sc2c(c1C(=O)O)CCCC2
IC50 (Tumor necrosis factor): > 20 µM (inactive)
IC50 [13]: > 20 µM (inactive)
IC50 [14]: > 20 µM (inactive)
IC50 (HEK293 [15]): > 20 µM (inactive)

Cn1c(=O)c2c(nc(N/N=C/c3cccs3)n2Cc2ccc(Br)cc2)n(C)c1=O
EC50 [16]: > 100 µM (not active)

CCOC(=O)c1c(N)sc2c1CCN(Cc1ccccc1)C2 [TINORIDINE]
Ki [17]: 20.5 µM (inactive)
